Activity calls are given as the source filed them.
How the values were obtained:
[1] = inhibitors of intracellular T. cruzi replication, confirmation, NIH3T3 host cells, beta-gal luminescence (AID 2044); type: functional, cell-based;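 further: intracellular parasites grown in NIH/3T3 mouse fibroblasts as host cells; luminescent beta-galactosidase reporter signal from transgenic T. cruzi replicating inside host cells; inhibitors lower the luminescence signal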
[2] = cytotoxicity toward NIH3T3 fibroblasts, dose response, counter-screen, cell-based, ATP luminescence, mouse fibroblasts (AID 2010); type: functional;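 further: cells exposed to compound for about 90 hours before reading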
Ephrin type-A receptor 4 = Ephrin type-A receptor 4 (Mus musculus, UniProt Q03137); assay: inhibitors of EphA4 binding to KYL peptide, primary screen, biochemical, colorimetric, mouse EphA4 (AID 689); type: functional
[3] = biological target: RNA-editing ligase 1, mitochondrial (Trypanosoma brucei brucei, UniProt P86926); assay: TbREL1 ligase inhibitors, dose response, biochemical, fluorescence, Trypanosoma brucei (AID 1117295); type: functional
[4] = P. falciparum 3D7-ScDHODH growth inhibitors, dose response, SYBR Green, dry powder samples (AID 1159570); type: functional, cell-based;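 further: parasite growth measured after 72 hours of compound exposure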
[5] = HepG2 cell cytotoxicity, dose response, cytotoxicity control, plate reader, dry powder samples (AID 1159569); type: functional, cell-based;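 further: inhibitor potency with signal falling toward the positive control level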
[6] = P. falciparum Dd2 growth inhibitors, dose response, SYBR Green, cherry-picked samples (AID 1159567); type: functional, cell-based
[7] = P. falciparum Dd2 growth inhibitors, dose response, SYBR Green, dry powder samples (AID 1159566); type: functional, cell-based;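 further: potency for growth inhibition with lower SYBR green DNA signal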
[8] = HepG2 cell cytotoxicity, dose response, cytotoxicity control, cherry-picked samples (AID 1159577); type: functional, cell-based
[9] = P. falciparum ATP4 D1247Y mutant growth inhibitors, dose response, NITD609-resistant line, SYBR Green, dry powder (AID 1159571); type: functional, cell-based;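 further: parasites synchronized at ring stage by sorbitol before testing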
[10] = biological target: T1, RNA-binding protein pos-1 (Caenorhabditis elegans, UniProt G5EF15); assay: inhibitors of POS-1/mex-3 RNA binding, dose response, biochemical, fluorescence polarization (AID 1964);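 further: purified POS-1 fused to maltose binding protein made in E. coli; potency of compounds blocking POS-1 binding to fluorescent RNA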
T1 sequence (G5EF15 whole entry): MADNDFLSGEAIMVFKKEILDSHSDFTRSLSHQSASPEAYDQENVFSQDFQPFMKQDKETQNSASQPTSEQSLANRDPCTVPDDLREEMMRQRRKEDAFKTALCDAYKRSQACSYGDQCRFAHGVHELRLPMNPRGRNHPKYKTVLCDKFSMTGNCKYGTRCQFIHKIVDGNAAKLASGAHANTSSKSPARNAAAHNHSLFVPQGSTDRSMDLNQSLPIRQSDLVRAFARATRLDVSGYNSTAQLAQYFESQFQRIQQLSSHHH

[11] = biological target: T2, Zinc finger protein mex-5 (Caenorhabditis elegans, UniProt Q9XUB2); assay: MEX-5/TCR-2 RNA interaction inhibitors, dose response, biochemical, C. elegans, fluorescence polarization (AID 1960)
T2 sequence (Q9XUB2 whole entry): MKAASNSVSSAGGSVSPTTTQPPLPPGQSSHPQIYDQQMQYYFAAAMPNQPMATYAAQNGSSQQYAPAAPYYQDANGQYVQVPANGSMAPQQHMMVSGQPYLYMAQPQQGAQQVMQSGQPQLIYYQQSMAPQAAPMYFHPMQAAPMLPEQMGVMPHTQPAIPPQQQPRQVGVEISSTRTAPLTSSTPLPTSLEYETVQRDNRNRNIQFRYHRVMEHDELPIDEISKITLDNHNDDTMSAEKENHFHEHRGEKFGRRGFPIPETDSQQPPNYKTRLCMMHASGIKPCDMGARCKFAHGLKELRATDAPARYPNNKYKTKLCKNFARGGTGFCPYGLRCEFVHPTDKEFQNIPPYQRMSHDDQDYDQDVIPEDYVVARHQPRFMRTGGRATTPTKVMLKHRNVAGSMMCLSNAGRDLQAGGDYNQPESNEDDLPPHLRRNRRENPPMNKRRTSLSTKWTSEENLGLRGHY

Transthyretin = Transthyretin (Homo sapiens, UniProt P02766); assay: Luminescence-based cell-based high throughput dose response assay to identify activators of Transthyretin (TTR) transcription.; type: functional

Chain of Ephrin type-A receptor 4 (Q03137 whole entry): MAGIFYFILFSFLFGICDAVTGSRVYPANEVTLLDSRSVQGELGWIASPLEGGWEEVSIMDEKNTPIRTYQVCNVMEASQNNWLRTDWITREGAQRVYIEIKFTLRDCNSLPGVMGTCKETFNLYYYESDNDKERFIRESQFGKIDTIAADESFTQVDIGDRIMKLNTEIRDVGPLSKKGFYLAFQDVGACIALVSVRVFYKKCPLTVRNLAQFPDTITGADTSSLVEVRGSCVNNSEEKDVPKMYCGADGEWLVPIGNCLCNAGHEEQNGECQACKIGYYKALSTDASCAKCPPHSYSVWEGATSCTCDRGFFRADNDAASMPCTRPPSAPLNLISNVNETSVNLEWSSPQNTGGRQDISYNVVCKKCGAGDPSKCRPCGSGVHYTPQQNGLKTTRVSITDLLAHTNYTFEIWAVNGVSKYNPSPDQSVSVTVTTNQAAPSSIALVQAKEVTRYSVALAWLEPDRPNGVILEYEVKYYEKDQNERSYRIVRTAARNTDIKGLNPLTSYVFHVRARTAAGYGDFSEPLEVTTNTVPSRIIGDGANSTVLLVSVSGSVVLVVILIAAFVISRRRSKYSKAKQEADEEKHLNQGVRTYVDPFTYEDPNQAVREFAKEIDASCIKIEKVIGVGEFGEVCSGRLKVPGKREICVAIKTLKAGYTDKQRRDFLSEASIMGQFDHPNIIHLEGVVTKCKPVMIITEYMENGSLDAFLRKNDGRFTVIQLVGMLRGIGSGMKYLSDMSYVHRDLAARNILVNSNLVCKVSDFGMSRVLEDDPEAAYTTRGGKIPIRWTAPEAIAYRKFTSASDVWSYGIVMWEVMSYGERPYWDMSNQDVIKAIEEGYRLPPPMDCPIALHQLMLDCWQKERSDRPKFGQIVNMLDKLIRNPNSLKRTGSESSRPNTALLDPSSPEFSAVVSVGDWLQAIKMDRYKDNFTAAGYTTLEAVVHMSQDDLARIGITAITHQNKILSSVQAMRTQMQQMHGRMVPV
Chain of RNA-editing ligase 1, mitochondrial (P86926 whole entry): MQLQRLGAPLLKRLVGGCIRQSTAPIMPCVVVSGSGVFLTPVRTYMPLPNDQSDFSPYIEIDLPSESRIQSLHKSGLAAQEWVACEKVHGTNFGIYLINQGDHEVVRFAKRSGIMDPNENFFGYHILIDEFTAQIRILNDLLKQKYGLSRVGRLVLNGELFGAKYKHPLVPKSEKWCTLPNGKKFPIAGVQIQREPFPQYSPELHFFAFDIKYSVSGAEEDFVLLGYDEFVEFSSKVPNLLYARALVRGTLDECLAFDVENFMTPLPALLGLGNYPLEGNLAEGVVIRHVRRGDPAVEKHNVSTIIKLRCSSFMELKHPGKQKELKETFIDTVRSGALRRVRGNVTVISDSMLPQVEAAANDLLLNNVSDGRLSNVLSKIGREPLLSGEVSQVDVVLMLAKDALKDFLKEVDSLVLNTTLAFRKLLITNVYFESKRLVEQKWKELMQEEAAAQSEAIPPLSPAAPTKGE

For `Cc1nn(C(C)C)c(C)c1CN1CCCC(CCC(=O)NCc2ccccc2F)C1` (configuration not stated), the EC50 [1] was < 0.1 µM (active), the EC50 [2] was > 60 µM (not active) and the EC50 (cells) was < 0.004 µM (active).
In the case of `Cc1c(NC(=S)N/N=C/c2cccc(O)c2)c(=O)n(-c2ccccc2)n1C`, the IC50 (Ephrin type-A receptor 4) is reported as 39.5 µM (active).
For `COC(=O)C1=C(C)N(Cc2ccccc2C(F)(F)F)C(NCc2ccccc2)=NC1CCc1ccccc1` (configuration not stated), the IC50 [3] was > 96.6 µM (inactive).
With `COc1ccccc1S(=O)(=O)N(C)C[C@@H]1OCc2ccccc2-c2c(n(C)c3ccccc23)C(=O)N([C@H](C)CO)C[C@@H]1C` the AC50 [4] was 0.561 µM (active), the AC50 [5] was 89.2 µM (active) and the AC50 [6] was 0.729 µM (active). For the same compound, the AC50 [7] was 0.423 µM (active), the AC50 [8] was 36.7 µM (active) and the AC50 [9] was 0.548 µM (active).
In the case of `CCCCN1C(=O)NC(=O)/C(=C(O)\C=C\c2ccc3c(c2)OCO3)C1=O`, the EC50 [10] is reported as 11.5 µM (active), the EC50 [11] is reported as 9.12 µM (inconclusive) and the EC50 (Transthyretin) is reported as > 167 µM (inactive).
For `O=[N+]([O-])c1ccc(N2N=C(c3ccco3)CC2c2ccccc2)cc1` (configuration not stated), the IC50 (Ephrin type-A receptor 4) was > 100 µM (not active).
In the case of `COc1ccc(S(=O)(=O)N2CCCCN3[C@@H](CO)[C@@H](c4ccc(C5=CCCCC5)cc4)[C@@H]3C2)cc1`, the AC50 [6] is reported as 0.972 µM (active) and the AC50 [8] is reported as 10.2 µM (active).

Reference: ChEMBL document CHEMBL1201862, “PubChem BioAssay data set” (2004)
